According to US6737383B1, “Herbicidal oxadiazolidines” (priority 1999, dated 2004):

How the values were obtained:
[1] = tested on: corn; test: Test B pre/postemergence corn; assay type: in vivo, Zea mays
Procedure, shortened: (§1)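 Herbicidal effect was estimated by eye on a ten-point control scale after plants spent twelve to sixteen days in a greenhouse following soil or foliar treatment. Foliar sprays targeted plants at one to four leaves; all doses were formulated in a non-phytotoxic solvent with surfactant.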

[2] = tested on: smallflower flatsedge; test: Test B flood test smallflower flatsedge; assay type: in vivo, Cyperus difformis
Procedure, shortened: (§2)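 Read-out is a visual response score from 0 (no effect) to 10 (complete control), assigned by comparison with untreated controls. Treatment was applied at the 2-leaf stage, and plants stayed in the greenhouse for twelve to sixteen days before scoring.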

[3] = tested on: sugar beet; test: Test B pre/postemergence sugar beet; assay type: in vivo, Beta vulgaris
Procedure, shortened: as §1

[4] = tested on: purple nutsedge; test: Test B pre/postemergence purple nutsedge; assay type: in vivo, Cyperus rotundus
Procedure, shortened: as §1

[5] = tested on: crabgrass; test: Test B pre/postemergence crabgrass; assay type: in vivo, Digitaria sanguinalis
Procedure, shortened: as §1

[6] = tested on: velvetleaf; test: Test B pre/postemergence velvetleaf; assay type: in vivo, Abutilon theophrasti
Procedure, shortened: as §1

[7] = tested on: wheat; test: Test B pre/postemergence wheat; assay type: in vivo, Triticum aestivum
Procedure, shortened: as §1

[8] = tested on: rice; test: Test B flood test rice; assay type: in vivo, Oryza sativa
Procedure, shortened: as §2

[9] = tested on: pigweed; test: Test B pre/postemergence pigweed; assay type: in vivo, Amaranthus retroflexus
Procedure, shortened: as §1

[10] = tested on: rape; test: Test B pre/postemergence rape; assay type: in vivo, Brassica napus
Procedure, shortened: as §1

[11] = tested on: giant foxtail; test: Test B pre/postemergence giant foxtail; assay type: in vivo, Setaria faberii
Procedure, shortened: as §1

[12] = tested on: morningglory; test: Test B pre/postemergence morningglory; assay type: in vivo, Ipomoea hederacea
Procedure, shortened: as §1

[13] = tested on: bamyardgrass; test: Test B flood test barnyardgrass; assay type: in vivo, Echinochloa crus-galli
Procedure, shortened: as §2

[14] = tested on: wild oat; test: Test B pre/postemergence wild oat; assay type: in vivo, Avena fatua
Procedure, shortened: as §1

[15] = tested on: blackgrass; test: Test B pre/postemergence blackgrass; assay type: in vivo, Alopecurus myosuroides
Procedure, shortened: as §1

[16] = tested on: duck salad; test: Test B flood test duck salad; assay type: in vivo, Heteranthera limosa
Procedure, shortened: as §2

[17] = tested on: surinam grass; test: Test B pre/postemergence surinam grass; assay type: in vivo, Brachiaria decumbens
Procedure, shortened: as §1

[18] = tested on: soybean; test: Test B pre/postemergence soybean; assay type: in vivo, Glycine max
Procedure, shortened: as §1

[19] = tested on: cocklebur; test: Test B pre/postemergence cocklebur; assay type: in vivo, Xanthium strumarium
Procedure, shortened: as §1

[20] = Postemergence, Rate 62 g/ha, scale 0 to 10, 0 is no effect, 10 is complete control
[21] = Postemergence, Rate 125 g/ha, scale of 0 to 10 where 0 is no effect and 10 is complete control
[22] = Postemergence, Rate 250 g/ha, scale of 0 to 10, 0 is no effect, 10 is complete control
[23] = Postemergence, Rate 500 g/ha, scale of 0 to 10 where 0 is no effect and 10 is complete control
[24] = Preemergence, Rate 62 g/ha, scale of 0 to 10 where 0 is no effect and 10 is complete control
[25] = Preemergence, Rate 125 g/ha, scale of 0 to 10 where 0 is no effect and 10 is complete control
[26] = Preemergence, Rate 250 g/ha, scale 0 to 10 (0 no effect, 10 complete control)
[27] = Preemergence, Rate 500 g/ha, scale of 0 to 10 where 0 is no effect and 10 is complete control
[28] = Rate 62 g/ha, flood test species, Pre-emergence, visual evaluation after twelve to sixteen days
[29] = Rate 125 g/ha, under heading Pre-emergence, flood test species, visual evaluation after twelve to sixteen days
[30] = Rate 250 g/ha, Pre-emergence (flood test species), scale 0 to 10, 0 is no effect, 10 is complete control
[31] = Rate 500 g/ha, Pre-emergence section of Table B, 0 to 10 scale (0 no effect, 10 complete control)

## CC(C)N(C(=O)n1oc(=O)n(CC(=O)C2CCC2)c1=O)c1ccc(Cl)cc1 [Compound 643]
[1]; [20]
  Plant response rating, Corn: 0
[1]; [21]
  Corn plant response rating: 0
[1]; [22]
  Corn plant response rating: 0
[1]; [23]
  Plant response rating, Corn: 0
[1]; [24]
  Corn plant response rating: 0
[1]; [25]
  Corn plant response rating: 0
[1]; [26]
  Plant response rating, Corn: 0
[1]; [27]
  Plant response rating, Corn: 0
[2]; [28]
  Plant response rating, S. Flatsedge (0 to 10 scale, 0 is no effect, 10 is complete control): 0
[2]; [29]
  S. Flatsedge plant response rating (0 to 10 scale, 0 is no effect, 10 is complete control): 0
[2]; [30]
  S. Flatsedge plant response rating: 0
[2]; [31]
  S. Flatsedge plant response rating: 0
[3]; [20]
  Plant response rating, Sugarbeets: 0
[3]; [21]
  Sugarbeets plant response rating: 0
[3]; [22]
  Sugarbeets plant response rating: 0
[3]; [24]
  Sugarbeets plant response rating: 0
[3]; [25]
  Sugarbeets plant response rating: 0
[3]; [26]
  Plant response rating, Sugarbeets: 0
[3]; [27]
  Plant response rating, Sugarbeets: 0
[4]; [20]
  Plant response rating, Nutsedge: 0
[4]; [21]
  Nutsedge plant response rating: 0
[4]; [22]
  Nutsedge plant response rating: 0
[4]; [23]
  Plant response rating, Nutsedge: 0
[4]; [24]
  Nutsedge plant response rating: 0
[4]; [25]
  Nutsedge plant response rating: 0
[4]; [26]
  Plant response rating, Nutsedge: 0
[4]; [27]
  Plant response rating, Nutsedge: 0
[5]; [20]
  Plant response rating, Crabgrass: 0
[5]; [21]
  Crabgrass plant response rating: 0
[5]; [22]
  Crabgrass plant response rating: 0
[5]; [23]
  Plant response rating, Crabgrass: 6
[5]; [24]
  Crabgrass plant response rating: 0
[5]; [25]
  Crabgrass plant response rating: 3
[5]; [26]
  Plant response rating, Crabgrass: 9
[5]; [27]
  Plant response rating, Crabgrass: 10
[6]; [20]
  Plant response rating, Velvetleaf: 0
[6]; [21]
  Velvetleaf plant response rating: 0
[6]; [22]
  Velvetleaf plant response rating: 0
[6]; [24]
  Velvetleaf plant response rating: 0
[6]; [25]
  Velvetleaf plant response rating: 0
[6]; [26]
  Plant response rating, Velvetleaf: 0
[6]; [27]
  Plant response rating, Velvetleaf: 0
[7]; [20]
  Plant response rating, Wheat: 0
[7]; [21]
  Wheat plant response rating: 0
[7]; [22]
  Wheat plant response rating: 0
[7]; [24]
  Wheat plant response rating: 0
[7]; [25]
  Wheat plant response rating: 0
[7]; [26]
  Plant response rating, Wheat: 0
[7]; [27]
  Plant response rating, Wheat: 0
[8]; [28]
  Plant response rating, Rice (0 to 10 scale, 0 is no effect, 10 is complete control): 0
[8]; [29]
  Rice plant response rating (0 to 10 scale, 0 is no effect, 10 is complete control): 0
[8]; [30]
  Rice plant response rating: 0
[8]; [31]
  Rice plant response rating: 0
[9]; [20]
  Plant response rating, Redroot pigweed: 0
[9]; [21]
  Redroot pigweed plant response rating: 0
[9]; [22]
  Redroot pigweed plant response rating: 0
[9]; [24]
  Redroot pigweed plant response rating: 0
[9]; [25]
  Redroot pigweed plant response rating: 0
[9]; [26]
  Plant response rating, Redroot pigweed: 0
[9]; [27]
  Plant response rating, Redroot pigweed: 5
[10]; [21]
  Rape plant response rating: 0
[10]; [22]
  Rape plant response rating: 0
[10]; [23]
  Plant response rating, Rape: 0
[10]; [24]
  Rape plant response rating: 0
[10]; [25]
  Rape plant response rating: 0
[10]; [26]
  Plant response rating, Rape: 0
[10]; [27]
  Plant response rating, Rape: 6
[11]; [20]
  Plant response rating, Giant foxtail: 0
[11]; [21]
  Giant foxtail plant response rating: 0
[11]; [22]
  Giant foxtail plant response rating: 0
[11]; [23]
  Plant response rating, Giant foxtail: 0
[11]; [24]
  Giant foxtail plant response rating: 6
[11]; [25]
  Giant foxtail plant response rating: 8
[11]; [26]
  Plant response rating, Giant foxtail: 10
[11]; [27]
  Plant response rating, Giant foxtail: 10
[12]; [20]
  Plant response rating, Morningglory: 0
[12]; [21]
  Morningglory plant response rating: 4
[12]; [22]
  Morningglory plant response rating: 4
[12]; [23]
  Plant response rating, Morningglory: 6
[12]; [24]
  Morningglory plant response rating: 0
[12]; [25]
  Morningglory plant response rating: 0
[12]; [26]
  Plant response rating, Morningglory: 0
[12]; [27]
  Plant response rating, Morningglory: 0
[13]; [28]
  Plant response rating, Barnyardgrass (0 to 10 scale, 0 is no effect, 10 is complete control): 0
[13]; [29]
  Barnyardgrass plant response rating (0 to 10 scale, 0 is no effect, 10 is complete control): 0
[13]; [30]
  Barnyardgrass plant response rating: 0
[13]; [31]
  Barnyardgrass plant response rating: 0
[14]; [20]
  Plant response rating, Wild oats: 0
[14]; [21]
  Wild oats plant response rating: 1
[14]; [22]
  Wild oats plant response rating: 1
[14]; [24]
  Wild oats plant response rating: 0
[14]; [25]
  Wild oats plant response rating: 0
[14]; [26]
  Plant response rating, Wild oats: 0
[14]; [27]
  Plant response rating, Wild oats: 1
[15]; [20]
  Plant response rating, Blackgrass: 0
[15]; [21]
  Blackgrass plant response rating: 0
[15]; [22]
  Blackgrass plant response rating: 0
[15]; [23]
  Plant response rating, Blackgrass: 4
[15]; [24]
  Blackgrass plant response rating: 0
[15]; [25]
  Blackgrass plant response rating: 0
[15]; [26]
  Plant response rating, Blackgrass: 0
[15]; [27]
  Plant response rating, Blackgrass: 8
[16]; [28]
  Plant response rating, Ducksalad (0 to 10 scale, 0 is no effect, 10 is complete control): 0
[16]; [29]
  Ducksalad plant response rating (0 to 10 scale, 0 is no effect, 10 is complete control): 0
[16]; [30]
  Ducksalad plant response rating: 0
[16]; [31]
  Ducksalad plant response rating: 0
[17]; [20]
  Plant response rating, B. signalgrass: 0
[17]; [21]
  Plant response rating, B. signalgrass: 0
[17]; [22]
  B. signalgrass plant response rating: 0
[17]; [23]
  Plant response rating, B. signalgrass: 2
[17]; [24]
  B. signalgrass plant response rating: 0
[17]; [25]
  B. signalgrass plant response rating: 2
[17]; [26]
  Plant response rating, B. signalgrass: 2
[17]; [27]
  Plant response rating, B. signalgrass: 6
[18]; [20]
  Plant response rating, Soybean: 1
[18]; [21]
  Soybean plant response rating: 1
[18]; [22]
  Soybean plant response rating: 1
[18]; [24]
  Soybean plant response rating: 0
[18]; [25]
  Soybean plant response rating: 0
[18]; [26]
  Plant response rating, Soybean: 0
[18]; [27]
  Plant response rating, Soybean: 0
[19]; [20]
  Plant response rating, Cocklebur: 0
[19]; [21]
  Cocklebur plant response rating: 0
[19]; [22]
  Cocklebur plant response rating: 0
[19]; [23]
  Plant response rating, Cocklebur: 0
[19]; [24]
  Cocklebur plant response rating: 0
[19]; [25]
  Cocklebur plant response rating: 0
[19]; [26]
  Plant response rating, Cocklebur: 0
[19]; [27]
  Plant response rating, Cocklebur: 0
